Results as given in Sander's compilation of Henry's law constants (doi:10.1213/00000539-199904000-00035).

Assay: Henry solubility constant Hcp at 310 K (mol/(m3 Pa))
Conditions: reference: Eger et al. (1999)
In the case of `CC(O)C(F)(F)C(F)(F)C(F)(F)F` (configuration not stated) [3,3,4,4,5,5,5-heptafluoro-2-pentanol], the “Henry solubility constant Hcp at 310 K” value is reported as 0.009.
With `CCCCCCCCO` [1-octanol] the “Henry solubility constant Hcp at 310 K” value was 0.27.
For `CC(O)C(F)(F)F` (configuration not stated) [1,1,1-trifluoro-2-propanol], the “Henry solubility constant Hcp at 310 K” value was 0.13.
For `OC(C(F)(F)F)C(F)(F)F` [1,1,1,3,3,3-hexafluoro-2-propanol], the “Henry solubility constant Hcp at 310 K” value was 0.1.
For `OCC(F)(F)F` [2,2,2-trifluoroethanol], the “Henry solubility constant Hcp at 310 K” value was 0.43.
In the case of `OCCC(F)(F)C(F)(F)C(F)(F)C(F)(F)C(F)(F)C(F)(F)F` [1H,1H,2H,2H-perfluoro-1-octanol], the “Henry solubility constant Hcp at 310 K” value is reported as 0.00094.
In the case of `OCC(F)(F)C(F)(F)C(F)(F)C(F)(F)C(F)(F)C(F)(F)C(F)(F)F` [2,2,3,3,4,4,5,5,6,6,7,7,8,8,8-pentadecafluoro-1-octanol], the “Henry solubility constant Hcp at 310 K” value is reported as 0.00023.
In the case of `CCCCCCO` [1-hexanol], the “Henry solubility constant Hcp at 310 K” value is reported as 0.35.
For `OCC(F)(F)C(F)C(F)(F)F` (configuration not stated) [2,2,3,4,4,4-hexafluoro-1-butanol], the “Henry solubility constant Hcp at 310 K” value was 0.32.
With `CCO` [ethanol] the “Henry solubility constant Hcp at 310 K” value was 1.
In the case of `OCC(F)(F)C(F)(F)C(F)(F)C(F)(F)C(F)(F)F` [2,2,3,3,4,4,5,5,6,6,6-undecafluoro-1-hexanol], the “Henry solubility constant Hcp at 310 K” value is reported as 0.0017.
With `CC(O)(C(F)(F)F)C(F)(F)F` [1,1,1,3,3,3-hexafluoro-2-methyl-2-propanol] the “Henry solubility constant Hcp at 310 K” value was 0.018.
With `OCC(F)(F)C(F)(F)C(F)(F)C(F)F` [2,2,3,3,4,4,5,5-octafluoro-1-pentanol] the “Henry solubility constant Hcp at 310 K” value was 0.25.
In the case of `OCC(F)(F)C(F)F` [2,2,3,3-tetrafluoro-1-propanol], the “Henry solubility constant Hcp at 310 K” value is reported as 0.75.
With `OCC(F)(F)C(F)(F)F` [2,2,3,3,3-pentafluoro-1-propanol] the “Henry solubility constant Hcp at 310 K” value was 0.069.
For `OCC(F)(F)C(F)(F)C(F)(F)C(F)(F)C(F)(F)C(F)F` [2,2,3,3,4,4,5,5,6,6,7,7-dodecafluoro-1-heptanol], the “Henry solubility constant Hcp at 310 K” value was 0.064.
With `OCC(F)(F)C(F)(F)C(F)(F)C(F)(F)C(F)(F)C(F)(F)F` [2,2,3,3,4,4,5,5,6,6,7,7,7-tridecafluoro-1-heptanol] the “Henry solubility constant Hcp at 310 K” value was 0.0006.
